Literature values in patent publication US20100124560A1, “MULTI PORTION INTRA-ORAL DOSAGE FORM AND USE THEREOF” (McNEIL AB, priority 2008, published 2010).
Read-outs that look alike come from different tables or passages of the source.

What was measured:
[1] = pKa value lying in interval 8-9.6

| Structure (SMILES) | Solubility in water (in water) [g/kg] | further results |
| --- | --- | --- |
| NC(=O)C[C@H](N)C(=O)O [Aspargine] |  | pKa value (in interval 8-9.6) [1]: 8.73 |
| N[C@@H](CS(=O)(=O)O)C(=O)O [Cysteic acid] |  | Solubility in water, g/kg (in water): Very soluble |
| NC(=O)CC[C@H](N)C(=O)O [Glutamine] | 42 |  |
| N[C@@H](Cc1c[nH]cn1)C(=O)O [Histidine] | 43.5 |  |
| CC[C@H](C)[C@H](N)C(=O)O [Isoleucine] | 34.2 |  |
| CC(C)C[C@H](N)C(=O)O [Leucine] | 22.0 |  |
| NCCCC[C@H](N)C(=O)O [Lysine] |  | Solubility in water, g/kg: Very soluble^a)b) |
| CSCC[C@H](N)C(=O)O [Methionine] | 56 |  |
| N[C@@H](Cc1ccccc1)C(=O)O [Phenylalanine] | 27.9 |  |
| N[C@@H](CO)C(=O)O [Serine] |  | pKa value (in interval 8-9.6) [1]: 9.05 |
| CC(C)[C@H](N)C(=O)O [Valine] | 88.5 |  |
